Experimental findings from patent US20240199647A1, “ANTI-VIRAL COMPOUNDS” (Aligos Therapeutics, Inc., priority 2022, published 2024) are described below.

One data set has as its target SARS-Cov-2 3CLpro (Severe acute respiratory syndrome coronavirus 2, UniProt P0DTD1). Put plainly: biochemical. The settings on record: Table A, class symbols, read-out: SARS-Cov-2 (IC50).
Data set [1] has as its system human beta-coronavirus OC43. Nature of the data set: OC43 Coronavirus Assay in HeLa cells (antiviral, cytopathic effect, cell-titer-glo). The following applies: Betacoronavirus 1, OC43, HeLa, Table B, OC43 coronavirus in HeLa cells, read-out: EC50. Type of data set: cell-based. In general terms: Damage to the host cells serves as the signal in cytopathic effect assays.

Data set [2] concerns SARS-CoV-2 B.1.1.7 lineage. Put plainly: microbe, parasite or virus in culture. The settings on record: Severe acute respiratory syndrome coronavirus 2, Table C, SARS-CoV-2 B.1.1.7 in A549-dual_ACE2_TMPRSS2 cells, read-out: A549-dual_ACE2_TMPRSS2 (EC50). Type of data set: cell-based.
The nature of another data set: in vitro. The settings on record: human.
Data set [3] in a line: Cytotoxicity in HeLa cells without addition of OC43 virus (in parallel). The following applies: human, HeLa cells, without OC43 virus.

Read-outs that look alike come from different tables or passages of the source. Some results are limits rather than exact numbers.

One may read the IC50 as the concentration at which inhibition is half-maximal. By EC50 is commonly meant the concentration giving half of the maximal effect. As for `CN(C(=O)[C@@H](NC(=O)C(F)(F)F)C1CC(F)(F)C1)[C@@H](CC1CC1)C(=O)N1C[C@@]2(C[C@H]1C#N)Oc1cccnc1NC2=O` [Compound 201], the IC50 at SARS-Cov-2 3CLpro is 20 to 200 nM. Also, the EC50 in data set [1] (class symbols) and in data set [2] (class symbols) was 100 to 1000 nM each time. Further, in the data set “in vitro”, the CC50 was > 1000 nM. Moreover, in data set [3], the CC50 at 6 days was > 10000 nM.
Regarding `CC(C)C[C@@H](C(=O)N1C[C@]2(C[C@H]1C#N)C(=O)Nc1cc(-c3ccccc3)nn12)N(C)C(=O)[C@H](C)NC(=O)C(F)(F)F` [Compound 25, (S)—N—((S)-1-((3R,5'S)-5′-cyano-2-oxo-6-phenyl-1,2-dihydrospiro[imidazo[1,2-b]pyrazole-3,3′-pyrrolidin]-1′-yl)-4-methyl-1-oxopentan-2-yl)-N-methyl-2-(2,2,2-trifluoroacetamido)propanamide], the IC50 on SARS-Cov-2 3CLpro lay in the range of 20 to 200 nM. The EC50 in data set [1] (class symbols) and in data set [2] (class symbols) was 100 to 1000 nM each time. The CC50 in the data set “in vitro” is > 1000 nM. In data set [3], the CC50 at 6 days was > 10000 nM.
Regarding `CCC1C[C@@]2(C[C@@H](C#N)N(C(=O)[C@H](CC(C)C)N(C)C(=O)[C@H](C)NC(=O)C(F)(F)F)C2)C(=O)N1` (stereo partly shown) [Compound 23], the IC50 on SARS-Cov-2 3CLpro was < 20 nM. Further, the EC50 in data set [1] (class symbols) and in data set [2] (class symbols) was 100 to 1000 nM each time. Besides, in the data set “in vitro”, the CC50 is > 1000 nM. The CC50 at 6 days in data set [3] was > 10000 nM.
For the molecule `CN(C(=O)CCN1CCOCC1)[C@@H](CC1CC1)C(=O)N1C[C@@]2(C[C@H]1C#N)Oc1cc(F)cc(F)c1NC2=O` [Compound 132], the half-maximal inhibitory concentration (IC50) at SARS-Cov-2 3CLpro was in the range of 20 to 200 nM. Moreover, the EC50 in data set [1] (class symbols) is 1000 to 10000 nM; in data set [2] (class symbols), 100 to 1000 nM. Besides, the CC50 in “in vitro” is > 1000 nM. Also, the CC50 at 6 days in data set [3] was > 10000 nM.
With `CC(C)C[C@@H](C(=O)N1C[C@]2(CCCNC2=O)C[C@H]1C#N)N(C)C(=O)[C@H](C)NC(=O)C(F)(F)F` [Compound 11], the half-maximal inhibitory concentration (IC50) at SARS-Cov-2 3CLpro lay in the range of 20 to 200 nM. Moreover, the EC50 was 1000 to 10000 nM in data set [1] (class symbols) and 100 to 1000 nM in data set [2] (class symbols). In addition, in “in vitro”, the CC50 is > 1000 nM. In addition, in data set [3], the CC50 at 6 days is > 10000 nM.
For `CN(C(=O)[C@H](CC1CC1)NC(=O)C(F)(F)F)[C@@H](CC1CC1)C(=O)N1C[C@@]2(C[C@H]1C#N)Oc1cnccc1NC2=O` [Compound 73], the IC50 at SARS-Cov-2 3CLpro was 20 to 200 nM. In addition, the EC50 in data set [1] (class symbols) and in data set [2] (class symbols) was 100 to 1000 nM each time. The CC50 in the data set “in vitro” was > 1000 nM. The CC50 at 6 days in data set [3] is > 10000 nM.
As to `CC(C)C[C@@H](C(=O)N1C[C@]2(Cc3ccccc3NC2=O)C[C@H]1C#N)N(C)C(=O)[C@H](C)NC(=O)C(F)(F)F` [Example 32, (S)—N—((S)-1-((3S,5S)-5-cyano-2′-oxo-1′,4′-dihydro-2′H-spiro[pyrrolidine-3,3′-quinolin]-1-yl)-4-methyl-1-oxopentan-2-yl)-N-methyl-2-(2,2,2-trifluoroacetamido)propanamide], the IC50 at SARS-Cov-2 3CLpro was < 20 nM. The EC50 in data set [1] (class symbols) was in the range of 1000 to 10000 nM; in data set [2] (class symbols) it was 100 to 1000 nM. In “in vitro”, the CC50 is > 1000 nM. Also, the CC50 at 6 days in data set [3] was > 10000 nM.
As to `C[C@H](NC(=O)C(F)(F)F)C(=O)N(C)[C@@H](COC(C)(C)C)C(=O)N1C[C@@]2(C[C@H]1C#N)Oc1cc(F)cc(F)c1NC2=O` [Compound 115, (S)—N—((S)-3-(t-butoxy)-1-((2R,5'S)-5′-cyano-5,7-difluoro-3-oxo-3,4-dihydrospiro[benzo[b][1,4]oxazine-2,3′-pyrrolidin]-1′-yl)-1-oxopropan-2-yl)-N-methyl-2-(2,2,2-trifluoroacetamido)propenamide], at SARS-Cov-2 3CLpro, the IC50 is < 20 nM. Further, the EC50 in data set [1] (class symbols) and in data set [2] (class symbols) was 100 to 1000 nM in each case. Besides, the CC50 in “in vitro” was > 1000 nM. In addition, the CC50 at 6 days in data set [3] was > 10000 nM.
Consider `CC(C)C[C@@H](C(=O)N1C[C@@]2(C[C@H]1C#N)CC1(CCCC1)NC2=O)N(C)C(=O)[C@H](C)NC(=O)C(F)(F)F` [Compound 19], for which the IC50 at SARS-Cov-2 3CLpro lay within 20 to 200 nM. The EC50 in data set [1] (class symbols) and in data set [2] (class symbols) was 100 to 1000 nM throughout. The CC50 in “in vitro” was > 1000 nM. Further, the CC50 at 6 days in data set [3] was > 10000 nM.
Consider `CC(C)C[C@@H](C(=O)N1C[C@]2(CC(C)NC2=O)C[C@H]1C#N)N(C)C(=O)[C@H](C)NC(=O)C(F)(F)F` (stereo partly drawn) [Compound 21, (2S)—N-((2S)-1-((3S,5S)-3-cyano-8-methyl-6-oxo-2,7-diazaspiro[4.4]nonan-2-yl)-4-methyl-1-oxopentan-2-yl)-N-methyl-2-(2,2,2-trifluoroacetamido)propanamide], for which the IC50 at SARS-Cov-2 3CLpro was < 20 nM. The EC50 in data set [1] (class symbols) and in data set [2] (class symbols) was 100 to 1000 nM each time. Moreover, the CC50 in the data set “in vitro” is > 1000 nM. The CC50 at 6 days in data set [3] was > 10000 nM.
Take `CN(C(=O)[C@H](CC1CC1)NC(=O)C(F)(F)F)[C@@H](CC1CC1)C(=O)N1C[C@@]2(C[C@H]1C#N)Oc1c(F)ccc(F)c1NC2=O` [Compound 57]: on SARS-Cov-2 3CLpro, the IC50 is < 20 nM. In addition, the EC50 in data set [1] (class symbols) and in data set [2] (class symbols) was < 100 nM throughout. In the data set “in vitro”, the CC50 was > 1000 nM. The CC50 at 6 days in data set [3] was > 10000 nM.
Regarding `CN(C(=O)[C@H](CC1CC1)NS(=O)(=O)c1ccc(F)cc1)[C@@H](CC1CC1)C(=O)N1C[C@@]2(C[C@H]1C#N)Oc1cccnc1NC2=O` [Compound 197], at SARS-Cov-2 3CLpro, the IC50 is < 20 nM. The EC50 is < 100 nM in data set [1] (class symbols) and 100 to 1000 nM in data set [2] (class symbols). The CC50 in the data set “in vitro” is > 1000 nM. In addition, the CC50 at 6 days in data set [3] was > 10000 nM.
As to `CN(C)C(=O)c1ccc2c(c1)O[C@@]1(C[C@@H](C#N)N(C(=O)[C@H](CC3CC3)N(C)C(=O)[C@H](CC3CC3)NC(=O)C(F)(F)F)C1)C(=O)N2` [Compound 112, (2R,5'S)-5′-cyano-1′-((S)-3-cyclopropyl-2-((S)-3-cyclopropyl-N-methyl-2-(2,2,2-trifluoroacetamido)propanamido)propanoyl)-N,N-dimethyl-3-oxo-3,4-dihydrospiro[benzo[b][1,4]oxazine-2,3′-pyrrolidine]-7-carboxamide], the IC50 on SARS-Cov-2 3CLpro was < 20 nM. Moreover, the EC50 is < 100 nM in data set [1] (class symbols) and 100 to 1000 nM in data set [2] (class symbols). Further, the CC50 in the data set “in vitro” was > 1000 nM. In addition, the CC50 at 6 days in data set [3] is > 10000 nM.
On to `CN(C(=O)[C@H](CC1CC1)NC(=O)C(F)(F)F)[C@@H](CC1CC1)C(=O)N1C[C@@]2(C[C@H]1C#N)Oc1cc(F)ccc1NC2=O` [Compound 50], for which the IC50 at SARS-Cov-2 3CLpro was < 20 nM. Moreover, the EC50 in data set [1] (class symbols) and in data set [2] (class symbols) was < 100 nM throughout. The CC50 in the data set “in vitro” is > 1000 nM. Further, the CC50 at 6 days in data set [3] was > 10000 nM.
For `CN(C(=O)[C@@H](Cc1ccc(F)cc1)NC(=O)C(F)(F)F)[C@@H](CC1CC1)C(=O)N1C[C@@]2(C[C@H]1C#N)Oc1cc(F)cc(F)c1NC2=O` [Compound 90], the IC50 on SARS-Cov-2 3CLpro is < 20 nM. The EC50 in data set [1] (class symbols) and in data set [2] (class symbols) was < 100 nM throughout. Further, the CC50 in the data set “in vitro” is > 1000 nM. The CC50 at 6 days in data set [3] was > 10000 nM.
Regarding `CN(C(=O)c1cc2c(F)cc(F)c(F)c2[nH]1)[C@@H](CC1CC1)C(=O)N1C[C@@]2(C[C@H]1C#N)Oc1cc(F)cc(F)c1NC2=O` [Compound 74], on SARS-Cov-2 3CLpro, the IC50 was 20 to 200 nM. In addition, the figures for the 50% effective concentration (EC50) in data set [1] (cells given as a bound) and in data set [2] (class symbols) were > 10000 nM and 100 to 1000 nM, respectively. Also, the CC50 in “in vitro” was > 1000 nM. For the same molecule, in data set [3], the CC50 at 6 days was > 10000 nM.
In the case of `CN(C(=O)[C@H](CC1CC1)NC(=O)C(F)(F)F)[C@@H](CC1CC1)C(=O)N1C[C@@]2(C[C@H]1C#N)Oc1c(cccc1-c1ccccc1)NC2=O` [Compound 125, (S)—N—((S)-1-((2R,5'S)-5′-cyano-3-oxo-8-phenyl-3,4-dihydrospiro[benzo[b][1,4]oxazine-2,3′-pyrrolidin]-1′-yl)-3-cyclopropyl-1-oxopropan-2-yl)-3-cyclopropyl-N-methyl-2-(2,2,2-trifluoroacetamido)propanamide], on SARS-Cov-2 3CLpro, the IC50 was < 20 nM. Besides, the EC50 in data set [1] (class symbols) and in data set [2] (class symbols) was < 100 nM each time. Moreover, the CC50 in “in vitro” was > 1000 nM. The CC50 at 6 days in data set [3] is > 10000 nM.
As to `Cc1cn([C@@H](CC2CC2)C(=O)N(C)[C@@H](CC2CC2)C(=O)N2C[C@@]3(C[C@H]2C#N)Oc2cc(F)cc(F)c2NC3=O)nn1` [Compound 146], the half-inhibitory concentration (IC50) at SARS-Cov-2 3CLpro is < 20 nM. Besides, the EC50 in data set [1] (class symbols) and in data set [2] (class symbols) was 100 to 1000 nM throughout. Also, the CC50 in “in vitro” was > 1000 nM. Further, in data set [3], the CC50 at 6 days is > 10000 nM.
In the case of `CC1=N[C@@]2(C[C@@H](C#N)N(C(=O)[C@H](CC(C)C)N(C)C(=O)[C@H](C)NC(=O)C(F)(F)F)C2)C(=O)N1` [Compound 18], on SARS-Cov-2 3CLpro, the IC50 was 20 to 200 nM. In addition, the values for the EC50 in data set [1] (class symbols) and in data set [2] (cells given as a bound) were 1000 to 10000 nM and > 1000 nM, respectively. The CC50 in the data set “in vitro” is > 1000 nM. For the same molecule, in data set [3], the CC50 at 6 days is > 10000 nM.
As to `CC(C)CC(C(=O)N1C[C@]2(C[C@H]1C#N)C(=O)Nc1c3c(nn12)CCCC3)N(C)C(=O)[C@H](C)NC(=O)C(F)(F)F` (stereo in doubt) [Example 28, (2S)—N-[(2S)-1-[(3R,5'S)-5′-cyano-2-oxo-6,7,8,9-tetrahydro-1H-spiro[imidazo[1,2-b]indazole-3,3′-pyrrolidin]-1′-yl]-4-methyl-1-oxopentan-2-yl]-N-methyl-2-(2,2,2-trifluoroacetamido)propanamide], the IC50 on SARS-Cov-2 3CLpro is < 20 nM. The EC50 in data set [1] (class symbols) was < 100 nM; in data set [2] (cells given as a bound) it was > 1000 nM. Besides, the CC50 in the data set “in vitro” is > 1000 nM. In addition, the CC50 at 6 days in data set [3] was > 10000 nM.
